The record followed here is PubChem BioAssay (NCI).

Where “and” joins values, the source holds several entries; their conditions need not be identical. Equal values may be shown once.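 Dose response: 5 concentrations. Exposure: 48 h. Format: 96-well plates. Endpoint: linear interpolation; highest concentration if not reached. GI50: concentration for 50% inhibition of growth. TGI marks complete inhibition of growth.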 Where a SMILES comes first, the peptide text is derived from it. [ ]: non-standard residue; d: D form. The star is where a group is joined. Palmitoyl = CCCCCCCCCCCCCCCC(=O)*; Cbz = O=C(OCc1ccccc1)*; Aib = CC(C)(N)C(=O)O; OBn = c1ccc(CO*)cc1

Holding throughout (assay): inhibition of tumour cell growth, NCI panel, 48 h
Experiment [1] has as its system BT-549 breast.
For experiment [2], the system named is HOP-62 NSCLC.
For experiment [3], the system named is HOP-92 NSCLC.
Experiment [4] relates to MDA-MB-231 breast.
In experiment [5] the test system is NCI-H460 lung.
For experiment [6], the system named is NCI-H522 lung.
Experiment [7] concerns OVCAR-4 ovarian.
Experiment [8] relates to OVCAR-8 ovarian.
For experiment [9], the system named is SK-MEL-28 melanoma.
Experiment [10] concerns SN12C renal.
Experiment [11] relates to U251 CNS.

With `CC1OC(O[C@H]2C3C=CO[C@@H](OC4OC(CO)C(O)C(O)C4O)C3[C@@]3(COC(=O)/C=C/c4ccccc4)O[C@@H]23)C(O)C(O)C1O` (some centres undefined), the TGI in experiment [1], in experiment [2], in experiment [3], in experiment [4], in experiment [5] and in experiment [6] was over 100 µM each time. The TGI in [7], in [8], in experiment [9], in [10] and in experiment [11] was over 100 µM each time.
With `CN1CC[C@]2(c3cccc(O)c3)CC(=O)/C(=C/c3ccccc3)[C@@H]1C2`, the TGI in experiment [1] stood at 7.27 µM; in experiment [2], 12.7 µM; in experiment [3], 9.93 µM; in experiment [4], 7.29 µM; in [5], 7.23 µM; in experiment [6] it was 11.2 µM. In addition, the TGI in [7] is 16.9 µM; in [8], 10.5 µM; in experiment [9] it was 13.4 µM; in experiment [10], 13.6 µM; in [11], 8.36 µM.
On to `CC(NC(=O)C(C)(C)NC(=O)C(CC(=O)OCc1ccccc1)NC(=O)OCc1ccccc1)C(N)=O` (centres undefined) (Cbz-Asp(OBn)-[Aib]-Ala-NH2; configuration not given here), for which the TGI in experiment [1], in experiment [2], in experiment [3], in [4], in [5] and in [6] was over 100 µM in each case. Besides, the TGI in experiment [7], in experiment [8], in [9], in experiment [10] and in [11] was over 100 µM throughout.
Turning to `O=C1/C(=C/c2ccc(Cl)cc2)CCCc2ccccc21`, the TGI in [1] was found to be 47.3 µM; in [2] it was 57.7 µM; in experiment [3] it was 57.3 µM; in [4], 39.7 µM; in [5], 32.2 µM; in experiment [6], 26.5 µM. Besides, the TGI in experiment [7] came out at 29.5 µM; in experiment [8] it was 32.7 µM; in [9], 30.7 µM; in experiment [10], 33.3 µM; in experiment [11], 27.4 µM.
As for `Nc1ncnc2c1ccn2C/C=C/CO`, the TGI in [1], in experiment [2], in experiment [3], in experiment [4], in experiment [5] and in experiment [6] was over 100 µM in each case. Moreover, the TGI in experiment [7], in experiment [8], in [9], in experiment [10] and in experiment [11] was over 100 µM throughout.
Turning to `CCCCCCCCCCCCCCCC(=O)N1CCCC1C(=O)NCC(=O)NC(Cc1ccccc1)C(=O)N1CCCC1C(=O)NC(CO)C(=O)NC(Cc1ccc(O)cc1)C(=O)NC(CCCCN)C(=O)NC(CC(C)C)C(=O)NC(CCCN=C(N)N)C(=O)N1CCCC1C(=O)NCC(N)=O` (centres undefined) (Palmitoyl-PGFPSYKLRPG-NH2; configuration not given here), the GI50 in experiment [1] is 20.8 µM; in [2], 22.9 µM; in experiment [3], 18.7 µM; in experiment [4] it was 17.5 µM; in [5], 19.4 µM; in experiment [6] it was 25.1 µM. For the same compound, the GI50 is 30.1 µM in experiment [7], 22.1 µM in experiment [8] and 13.9 µM in [9]. Besides, the TGI in experiment [1] was determined as 43.2 µM; in experiment [2] it was 48 µM; in experiment [3], 38.9 µM; in experiment [4] it was 32.8 µM; in experiment [5], 41.2 µM; in experiment [6], 60.3 µM. Besides, the TGI is 81.8 µM in experiment [7], 55.4 µM in experiment [8] and 50.3 µM in [9].
For `Clc1sc(Cl)c2c1[C@@H](Cl)C[C@@H]2Br`, the TGI in [1], in experiment [2], in [3], in experiment [4], in experiment [5] and in [6] was over 100 µM each time. The TGI in [7], in [8], in experiment [9], in [10] and in experiment [11] was over 100 µM throughout.
Take `C/C1=C\[C@H](C)C[C@H](C)OC(=O)[C@H](C)NC(=O)[C@@H](Cc2ccc(O)c(Br)c2)N(C)C(=O)[C@H](C)NC(=O)[C@@H](C)C1`: the TGI in experiment [1] is 4.12 µM; in [2], 0.112 µM; in experiment [3], 0.177 µM; in experiment [4] it was 0.518 µM; in experiment [5], over 19.5 µM; in [6], 1.35 µM. Further, the TGI in experiment [7] was 1.92 µM; in [8], over 7.69 µM; in experiment [9], over 10.6 µM; in experiment [10], over 25 µM; in experiment [11], over 7.76 µM.
Turning to `CSc1nc2c(c(N(C)C)n1)C(O)n1c(nc3ccccc31)S2` (centres undefined), the TGI was over 100 µM in experiment [1]; 69.1 µM in experiment [2]; over 74.5 µM in experiment [3]; over 100 µM in experiment [4]; over 100 µM in experiment [5]; 39.2 µM in experiment [6]. The TGI was 24.5 µM in experiment [7]; over 56.8 µM in experiment [8]; over 100 µM in [9]; over 100 µM in experiment [10]; over 55.5 µM in experiment [11].
Take `CO/N=C(/C(=O)OC)c1ccccc1COc1ccccc1C(F)(F)F`: the TGI in [1] is over 100 µM; in experiment [2], over 100 µM; in experiment [3] it was over 100 µM; in [4] it was over 100 µM; in experiment [5] it was over 100 µM; in [6], 56.3 µM. In addition, the TGI is 57.9 µM in [7]; over 100 µM in experiment [8]; over 100 µM in experiment [9]; over 100 µM in [10]; over 100 µM in experiment [11].
On to `C=CCn1c(=O)ccn(/C(=C/C(=O)OCC)C(=O)OCC)c1=O`, for which the TGI in experiment [1] is 29.3 µM; in experiment [2] it was 44.4 µM; in experiment [3], 9.15 µM; in experiment [4], 26 µM; in experiment [5] it was 34 µM; in [6] it was 7.57 µM. For the same compound, the TGI in [7] was over 51.4 µM; in [8], 31.5 µM; in [9], 30.6 µM; in experiment [10], 25.2 µM; in experiment [11], 27.6 µM.
`CC(C)N1CCN(c2ccc(OCC3COC(Cn4cncn4)(c4ccc(Cl)cc4Cl)O3)cc2)CC1` (centres undefined): the TGI is 30 µM in [1]; 28.5 µM in experiment [2]; 30.8 µM in experiment [3]; 28.5 µM in experiment [4]; 31.3 µM in [5]; 30.4 µM in experiment [6]. Moreover, the TGI in [7] was found to be 35.6 µM; in [8], 39.2 µM; in [9], 12.3 µM; in experiment [10] it was 30.7 µM; in experiment [11], 26.7 µM.
`CC1(C)C=CC(=O)C(O)C(C)(C)C1=O` (centres undefined): the TGI in [1] is over 100 µM; in [2], over 100 µM; in [3], over 100 µM; in [4] it was over 100 µM; in [5], over 100 µM; in experiment [6], 89.4 µM. In addition, the TGI in experiment [7], in [8], in experiment [9], in [10] and in experiment [11] was over 100 µM each time.
In the case of `Cc1ccc(/C=C2/N=C(N/N=C\C(O)C(O)C(O)C(O)CO)NC2=O)cc1` (centres undefined), the TGI in experiment [1], in [2], in experiment [3], in experiment [4], in experiment [5] and in [6] was over 100 µM throughout. For the same compound, the TGI in experiment [7], in experiment [8], in [9], in experiment [10] and in experiment [11] was over 100 µM each time. For the same compound, the GI50 in [7] is 85.1 µM and > 100 µM and 39.2 µM.
In the case of `COc1ccc(C(=O)NCCN(C)C)c2nc3ccccc3cc12`, the TGI in experiment [1] amounted to 14.4 µM; in experiment [2], 2.72 µM; in experiment [3] it was 8.05 µM; in [4], 10.9 µM; in [5], 2.55 µM; in experiment [6], 2.6 µM. The TGI in experiment [7] amounted to 6.49 µM; in experiment [8], 4.67 µM; in experiment [9], 7.11 µM; in experiment [10], 3.28 µM; in experiment [11], 7.62 µM.
In the case of `CC(C)(C)OC(=O)NC(CSSCC(NC(=O)OC(C)(C)C)C(=O)O)C(=O)O` (centres undefined), the TGI in [1], in experiment [2], in experiment [3], in experiment [4], in experiment [5] and in experiment [6] was over 100 µM each time. Also, the TGI in experiment [7], in experiment [8], in experiment [9], in [10] and in experiment [11] was over 100 µM in each case.
